In article PMC2074379 (British Journal of Cancer, 1996):

Test system: serine carboxypeptidase
Experiment: Effect of PMSF on the in vitro metabolism of antagonist D in 2% mouse liver homogenate
Assay type: biochemical
Settings: antagonist D 100 µg in 1.0 ml 2% w/v mouse liver homogenate in PBS, 37°C; PMSF 0-2.5 mM preincubated 15 min at 23°C; HPLC; mean of two to four experiments
Source text: British Journal of Cancer (1996) 73, 715-720 ? 1996 Stockton Press All rights reserved 0007-0920/96 $12.00 % Metabolism of the broad-spectrum neuropeptide growth factor antagonist: ID-Arg1, D-Phe5, D-Trp7'9, Leull"-substance P DA Jones', J Cummings', SP Langdon', AJ Maclellan', T Higgins2, E Rozengurt2 and JF Smyth' 'Imperial Cancer Research Fund, Medical Oncology Unit, Western General Hospital, Edinburgh EH4 2XU; 2Imperial Cancer Research Fund, PO Box 123, Lincoln's Inn Fields, London WC2A 3PX, UK. Summary Broad-spectrum neuropeptide growth factor antagonists, such as [D-Arg', D-Phe5, D-Trp7'9, Leu']substance P (antagonist D) and [Arg6, D-Trp7'9, NmePhe8]substance p(6- 11) (antagonist G), are currently being investigated as possible anti-tumour agents. These compounds are hoped to be effective against neuropeptide-driven cancers such as small-cell lung cancer. […] The in vitro metabolism of antagonist D has been characterised and the structures of two major metabolites have been elucidated by amino acid analysis and mass spectrometry. […] HPLC The HPLC system used consisted of two 510 HPLC pumps, a 712 WISP autosampler, a TCM column heater (all Waters, Northwich, UK) and a model 1046A fluorescence detector (Hewlett Packard, Walborn, Germany). […]

## O=S(=O)(F)Cc1ccccc1 [PMSF, phenylmethylsulfonylfluoride]
  PMSF concentration sufficient to cause almost complete arrest of the metabolism of antagonist D: 1.0 mM
